According to a melting point compilation (Tetko et al.; mined from patent text by program, amines drawn as free bases though some values may be those of a salt):

Row | melting point [°C] | Compound
1 | 91 | Oc1ccc(Nc2nc(Cl)nc(NC3CCCCCC3)n2)cc1Cl
2 | 113 to 116 | CCOC(=O)COc1cc(OCC(=O)OCC)c2c(C)c(Cc3ccccc3)c(=O)n(Cc3ccccc3)c2c1
3 | 138 to 142 | CN1CCN(c2cccc(Nc3cc(NC(=O)Nc4c(Cl)cc(Cl)cc4Cl)ncn3)c2)CC1
4 | 150 to 153 | CN(C)S(=O)(=O)c1cc2c(O)cccc2o1
5 | 108 to 110 | CCOC(=O)C(=CNc1ccc(OC)c(=O)cc1)C(=O)OCC
6 | 70 to 72 | CC(=O)C=CCCc1ccc(OCc2ccccc2)cc1
7 | 144 to 146 | O=C(Cn1ccnc1)c1ccc(-c2ccncc2)cc1
8 | 229 to 230 | CCn1cc(C(=O)O)c(=O)c2cc(C)sc21
9 | 139 to 140 | COCOc1cc(/C=C/S(=O)(=O)NC(=O)OC(C)(C)C)n(Cc2ccc(Cl)cc2Cl)n1
10 | 154 to 155 | O=C(C=Cc1cnc2ccccc2c1)NCCCSc1ccncc1
11 | 231 to 233 | c1cn2c(n1)-c1sccc1-n1cnc(-c3nc(C4CC4)no3)c1C2
12 | 67 to 69 | CCCCCCCCCCCCCCOc1ccccc1C(=O)Cc1nnn[nH]1
13 | 265 to 268 | CSCC[C@H]1NC(=O)[C@@H]([C@H](C)c2cccc3ccccc23)NC1=O
14 | 163 to 165 | CCOC(=O)C1=C(C)NC(c2c(F)cccc2F)=NC1c1ccc(F)cc1Cl (stereo not given)
15 | 78 to 80 | c1ccc(CC(=Nn2cncn2)c2ccccc2)cc1
16 | 68 to 70 | OC(c1ccc(Cl)cc1)c1ccccc1Cl (stereo not given)
17 | 148 to 153 | CN(C)C(=O)c1cc(C#N)cnc1Cl
18 | 122 to 123 | CCn1nc(-c2ccc(OC)cc2)cc(C(=O)NC)c1=O
19 | 138 to 139 | CC(C)Cc1ccc(C2(c3ccccc3)OC(=O)C(O)=C2O)cc1 (stereo not given)

Row | melting point [°C] | Compound
20 | 66 to 77 | CCOC(=O)c1cc2ccoc2nc1C(=O)OCC
21 | 105 | O=C(OCCS(=O)(=O)Cc1ccccc1)c1cc(Oc2ccc(C(F)(F)F)cc2Cl)ccc1[N+](=O)[O-]
22 | 55 to 56 | CC(C)(C)COc1ccc(N)cc1C#N
23 | 82 to 84 | CCOC(=O)CCCCCC(=O)NCc1cccc2c1C(=O)N(C1CCC(=O)NC1=O)C2=O (stereo not given)
24 | 190 to 191 | COc1cc2c(-c3ccc(Cl)cc3)csc2c(Cl)c1Cl
25 | 60 to 62 | O=c1cc(-c2ccc(OCc3ccccc3)cc2)oc2cc(OCc3ccccc3)cc(OCc3ccccc3)c12
26 | 167 to 168 | Cc1cc(C)cc(S(=O)(=O)c2cccc(F)c2C#N)c1
27 | 55 to 57 | N#CC1(c2ccc(OCc3ccc(F)cc3)c(OC3CCCC3)c2)CCC(=NO)CC1 (stereo not given)
28 | 197 to 198 | O=C1C(=O)c2ccc(-c3ccccc3)cc2C2=C1SCC1(CCN(Cc3ccc(F)cc3)CC1)O2
29 | 247 to 250 | COC(=O)c1cn2c3c(c(OS(C)(=O)=O)c(F)cc3c1=O)CCN2C
30 | 98 to 100 | CCCCOc1ccc(S(=O)(=O)Nc2onc(C)c2Br)cc1
31 | 153 to 154 | O=C(O)C(Cc1ccccc1)CS(=O)C1CCCCC1 (stereo not given)
32 | 127 to 128 | O=S(=O)(N[C@H](CO)c1ccccc1)c1ccc(Cl)cc1
33 | 165 to 167 | COc1ccc(NS(=O)(=O)c2ccc(NC3=C(Cl)C(=O)c4ccccc4C3=O)cc2OC)cc1
34 | 80 | CCCCCCCCCCCCCCCC(=O)NC(C(=O)OC)C(O)CCCCCCCCCCCCCCC (stereo not given)
35 | 168 | CCCCOC(=O)n1c2ccccc2c2nc3ccccc3cc21
36 | 110 | C=C(C)CC(O)(C(Nc1ccc(F)c2nc(C)ncc12)c1ccc(Cl)cc1OC)C(F)(F)F (stereo not given)
37 | 165 to 167 | CC1=NNC(=O)CC1c1ccc(OC2CCN(C(=O)OC(C)(C)C)CC2)cc1 (stereo not given)

Row | Compound | melting point [°C]
38 | CC(C)(Cc1c[nH]c2ccccc12)NC[C@H](O)CO | 77 to 77.8
39 | Fc1cc2c(c3cccnc13)OC(CN1CC=C(c3c[nH]c4ccccc34)CC1)CO2 (stereo not given) | 215
40 | CCOC(=O)c1ncc2[nH]c3ccccc3c2c1C | 235 to 239
